Assay results reported in ChEMBL document CHEMBL1201862, “PubChem BioAssay data set” (2004).
Several values for one entry are separate records, joined by “and”; a condition that tells them apart may be missing. Equal entries are not always repeated. Activity calls are given as the source filed them.

Tests used:
Large T antigen = Large T antigen (Simian virus 40, UniProt P03070); type: functional, Betapolyomavirus macacae;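 note: Confirmatory-stage PubChem screen for compounds that inhibit SV40 T antigen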
[1] = viability of PTEN-deleted HCT116 cells – cell-based, HCT116 PTEN knockout, dose response (AID 1047); type: functional;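 note: HCT116 colon tumor cells with PTEN knocked out; cells exposed to compound for 60 hours before readout; potency for loss of cell viability measured by luminescence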
[2] = molecular target: T1, Voltage-gated N-type calcium channel alpha-1B subunit/Amyloid beta A4 precursor protein-binding family A member 1 (Homo sapiens, UniProt Q00975+Q02410); type: protein assay
T1 sequence (Q00975 whole entry): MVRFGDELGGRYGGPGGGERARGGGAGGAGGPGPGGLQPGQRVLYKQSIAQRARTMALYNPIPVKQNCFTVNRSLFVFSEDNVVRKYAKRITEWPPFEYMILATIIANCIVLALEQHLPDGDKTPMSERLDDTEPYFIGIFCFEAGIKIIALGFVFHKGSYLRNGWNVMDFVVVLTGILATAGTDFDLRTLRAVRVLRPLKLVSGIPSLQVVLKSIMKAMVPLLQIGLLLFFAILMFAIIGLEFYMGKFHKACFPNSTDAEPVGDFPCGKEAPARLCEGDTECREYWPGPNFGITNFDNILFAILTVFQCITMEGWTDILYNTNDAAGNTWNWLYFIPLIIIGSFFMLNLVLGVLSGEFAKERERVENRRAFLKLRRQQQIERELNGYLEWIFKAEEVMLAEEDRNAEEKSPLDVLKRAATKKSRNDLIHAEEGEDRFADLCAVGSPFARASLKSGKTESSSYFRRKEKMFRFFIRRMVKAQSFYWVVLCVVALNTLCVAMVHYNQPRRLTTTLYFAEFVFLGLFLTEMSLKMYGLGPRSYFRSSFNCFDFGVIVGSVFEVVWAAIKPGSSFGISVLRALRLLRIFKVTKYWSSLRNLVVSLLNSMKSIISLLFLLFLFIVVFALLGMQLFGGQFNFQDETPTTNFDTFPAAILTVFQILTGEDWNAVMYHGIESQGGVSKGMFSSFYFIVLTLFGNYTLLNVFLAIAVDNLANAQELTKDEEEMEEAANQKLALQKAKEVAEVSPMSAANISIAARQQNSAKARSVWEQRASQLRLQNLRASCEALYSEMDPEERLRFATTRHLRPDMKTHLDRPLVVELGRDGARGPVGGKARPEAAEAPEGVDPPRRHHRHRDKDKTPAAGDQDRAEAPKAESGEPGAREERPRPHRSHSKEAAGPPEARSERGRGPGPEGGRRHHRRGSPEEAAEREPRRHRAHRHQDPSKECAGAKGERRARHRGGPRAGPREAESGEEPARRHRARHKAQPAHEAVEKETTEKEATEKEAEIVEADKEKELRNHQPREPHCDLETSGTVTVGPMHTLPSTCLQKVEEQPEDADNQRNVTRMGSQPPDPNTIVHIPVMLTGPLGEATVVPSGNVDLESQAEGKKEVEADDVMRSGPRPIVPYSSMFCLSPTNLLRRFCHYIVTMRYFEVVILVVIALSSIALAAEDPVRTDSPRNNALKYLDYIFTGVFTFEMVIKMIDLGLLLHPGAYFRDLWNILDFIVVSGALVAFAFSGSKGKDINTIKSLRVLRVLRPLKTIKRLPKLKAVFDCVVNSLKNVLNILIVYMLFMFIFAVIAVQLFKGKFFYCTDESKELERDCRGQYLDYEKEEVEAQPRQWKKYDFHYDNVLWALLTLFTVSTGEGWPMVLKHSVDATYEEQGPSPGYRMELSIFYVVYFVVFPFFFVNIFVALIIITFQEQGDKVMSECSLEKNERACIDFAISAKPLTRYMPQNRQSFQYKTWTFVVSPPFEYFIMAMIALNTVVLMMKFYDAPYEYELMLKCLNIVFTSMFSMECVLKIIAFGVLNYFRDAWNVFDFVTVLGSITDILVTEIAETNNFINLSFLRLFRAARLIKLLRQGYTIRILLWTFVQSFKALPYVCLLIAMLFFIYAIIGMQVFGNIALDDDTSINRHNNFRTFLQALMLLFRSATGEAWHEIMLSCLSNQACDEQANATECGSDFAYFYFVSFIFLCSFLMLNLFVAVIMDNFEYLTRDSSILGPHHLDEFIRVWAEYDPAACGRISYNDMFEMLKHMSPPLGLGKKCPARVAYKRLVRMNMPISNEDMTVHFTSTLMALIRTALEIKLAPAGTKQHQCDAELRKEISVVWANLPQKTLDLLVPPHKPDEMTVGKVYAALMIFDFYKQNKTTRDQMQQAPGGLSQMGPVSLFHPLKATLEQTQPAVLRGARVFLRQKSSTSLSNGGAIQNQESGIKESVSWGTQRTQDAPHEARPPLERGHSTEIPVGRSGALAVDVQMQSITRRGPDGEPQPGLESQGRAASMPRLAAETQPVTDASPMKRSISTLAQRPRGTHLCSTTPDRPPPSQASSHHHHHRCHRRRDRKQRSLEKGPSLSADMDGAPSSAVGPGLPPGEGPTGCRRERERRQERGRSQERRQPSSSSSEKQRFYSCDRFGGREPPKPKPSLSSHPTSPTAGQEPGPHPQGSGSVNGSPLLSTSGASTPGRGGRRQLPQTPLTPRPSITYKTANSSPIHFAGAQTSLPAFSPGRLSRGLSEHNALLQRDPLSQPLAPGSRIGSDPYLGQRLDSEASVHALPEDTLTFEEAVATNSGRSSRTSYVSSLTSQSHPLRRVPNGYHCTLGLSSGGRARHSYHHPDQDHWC
T1 sequence (Q02410 whole entry): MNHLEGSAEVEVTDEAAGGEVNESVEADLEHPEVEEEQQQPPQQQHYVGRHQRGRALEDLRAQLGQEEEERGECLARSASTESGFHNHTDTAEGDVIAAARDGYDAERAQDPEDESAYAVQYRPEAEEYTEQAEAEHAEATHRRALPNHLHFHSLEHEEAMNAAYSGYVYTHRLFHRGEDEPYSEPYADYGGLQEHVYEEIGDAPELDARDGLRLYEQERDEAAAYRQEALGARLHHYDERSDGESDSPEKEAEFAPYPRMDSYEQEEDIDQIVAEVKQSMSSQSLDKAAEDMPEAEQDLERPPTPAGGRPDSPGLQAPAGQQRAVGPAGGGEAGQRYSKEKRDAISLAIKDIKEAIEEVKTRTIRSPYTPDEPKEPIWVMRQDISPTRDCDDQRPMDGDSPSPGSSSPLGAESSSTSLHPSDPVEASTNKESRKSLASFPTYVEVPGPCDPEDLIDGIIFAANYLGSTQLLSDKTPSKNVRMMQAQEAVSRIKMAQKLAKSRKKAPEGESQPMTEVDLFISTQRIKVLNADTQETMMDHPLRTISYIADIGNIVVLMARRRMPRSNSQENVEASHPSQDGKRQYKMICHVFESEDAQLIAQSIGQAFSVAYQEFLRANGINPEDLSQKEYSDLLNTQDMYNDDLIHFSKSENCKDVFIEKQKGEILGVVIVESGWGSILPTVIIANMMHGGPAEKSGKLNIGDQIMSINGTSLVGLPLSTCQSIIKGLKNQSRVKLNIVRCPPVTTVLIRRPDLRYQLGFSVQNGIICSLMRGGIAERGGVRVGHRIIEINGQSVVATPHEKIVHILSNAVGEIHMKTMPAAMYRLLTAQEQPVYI

[3] = molecular target: T1, Voltage-gated N-type calcium channel alpha-1B subunit/Amyloid beta A4 precursor protein-binding family A member 1; type: protein assay; remark: listed apart in the source
[4] = viability of HCT116 lacking mutant beta-catenin – cell-based, human colon tumor, dose response (AID 1045); type: functional;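 note: HCT116 colon tumor cells with beta catenin knocked out; cells exposed to compound for 60 hours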
[5] = molecular target: T2, Short transient receptor potential channel 4 (Mus musculus, UniProt Q9QUQ5); experiment: block of DAMGO-driven TRPC4 calcium entry – cell-based, HEK293 TRPC4/mu-opioid, Fluo-4 calcium, dose response (AID 434942); type: functional;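 note: potency of inhibitors blocking the TRPC4 calcium response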
T2 sequence (Q9QUQ5 whole entry): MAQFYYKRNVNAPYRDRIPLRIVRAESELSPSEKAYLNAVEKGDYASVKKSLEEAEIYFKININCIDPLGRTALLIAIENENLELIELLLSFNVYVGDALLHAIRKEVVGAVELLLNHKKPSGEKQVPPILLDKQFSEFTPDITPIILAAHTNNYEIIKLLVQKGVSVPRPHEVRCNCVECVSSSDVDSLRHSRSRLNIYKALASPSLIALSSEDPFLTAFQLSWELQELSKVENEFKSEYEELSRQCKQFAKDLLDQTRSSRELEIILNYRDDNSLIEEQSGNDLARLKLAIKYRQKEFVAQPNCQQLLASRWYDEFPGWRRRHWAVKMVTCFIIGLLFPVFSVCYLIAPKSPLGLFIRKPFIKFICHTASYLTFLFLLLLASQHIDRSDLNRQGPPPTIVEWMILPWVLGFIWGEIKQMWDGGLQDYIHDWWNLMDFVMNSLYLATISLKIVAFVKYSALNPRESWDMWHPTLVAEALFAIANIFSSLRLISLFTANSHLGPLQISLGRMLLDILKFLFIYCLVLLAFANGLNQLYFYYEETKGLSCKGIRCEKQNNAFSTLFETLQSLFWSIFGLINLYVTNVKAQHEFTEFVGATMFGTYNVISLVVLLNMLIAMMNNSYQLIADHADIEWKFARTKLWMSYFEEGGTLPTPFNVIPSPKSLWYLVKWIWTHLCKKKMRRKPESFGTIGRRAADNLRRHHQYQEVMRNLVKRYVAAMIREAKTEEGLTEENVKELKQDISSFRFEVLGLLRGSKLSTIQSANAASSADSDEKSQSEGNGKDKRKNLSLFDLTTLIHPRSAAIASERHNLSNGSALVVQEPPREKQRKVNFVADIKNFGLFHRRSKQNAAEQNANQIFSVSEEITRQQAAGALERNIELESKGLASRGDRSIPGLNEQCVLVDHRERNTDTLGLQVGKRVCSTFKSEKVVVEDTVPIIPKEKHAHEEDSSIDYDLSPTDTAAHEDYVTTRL

[6] = viability loss of HPDE-C7K cells – cell-based, fluorescence, HTS, primary screen (AID 431); type: functional; conditions: Homo sapiens
HEK293 [7] = experiment: cells; type: functional, cell-based; conditions: Homo sapiens
[8] = molecular target: Nucleotide-binding oligomerization domain-containing protein 2 (Homo sapiens, UniProt Q9HC29); experiment: inhibition of NOD2-driven NF-kB reporter – cell-based, luminescence, uHTS, HEK293 (AID 1566); type: functional
Sequence of Nucleotide-binding oligomerization domain-containing protein 2 (Q9HC29 whole entry, the tested form may be a part): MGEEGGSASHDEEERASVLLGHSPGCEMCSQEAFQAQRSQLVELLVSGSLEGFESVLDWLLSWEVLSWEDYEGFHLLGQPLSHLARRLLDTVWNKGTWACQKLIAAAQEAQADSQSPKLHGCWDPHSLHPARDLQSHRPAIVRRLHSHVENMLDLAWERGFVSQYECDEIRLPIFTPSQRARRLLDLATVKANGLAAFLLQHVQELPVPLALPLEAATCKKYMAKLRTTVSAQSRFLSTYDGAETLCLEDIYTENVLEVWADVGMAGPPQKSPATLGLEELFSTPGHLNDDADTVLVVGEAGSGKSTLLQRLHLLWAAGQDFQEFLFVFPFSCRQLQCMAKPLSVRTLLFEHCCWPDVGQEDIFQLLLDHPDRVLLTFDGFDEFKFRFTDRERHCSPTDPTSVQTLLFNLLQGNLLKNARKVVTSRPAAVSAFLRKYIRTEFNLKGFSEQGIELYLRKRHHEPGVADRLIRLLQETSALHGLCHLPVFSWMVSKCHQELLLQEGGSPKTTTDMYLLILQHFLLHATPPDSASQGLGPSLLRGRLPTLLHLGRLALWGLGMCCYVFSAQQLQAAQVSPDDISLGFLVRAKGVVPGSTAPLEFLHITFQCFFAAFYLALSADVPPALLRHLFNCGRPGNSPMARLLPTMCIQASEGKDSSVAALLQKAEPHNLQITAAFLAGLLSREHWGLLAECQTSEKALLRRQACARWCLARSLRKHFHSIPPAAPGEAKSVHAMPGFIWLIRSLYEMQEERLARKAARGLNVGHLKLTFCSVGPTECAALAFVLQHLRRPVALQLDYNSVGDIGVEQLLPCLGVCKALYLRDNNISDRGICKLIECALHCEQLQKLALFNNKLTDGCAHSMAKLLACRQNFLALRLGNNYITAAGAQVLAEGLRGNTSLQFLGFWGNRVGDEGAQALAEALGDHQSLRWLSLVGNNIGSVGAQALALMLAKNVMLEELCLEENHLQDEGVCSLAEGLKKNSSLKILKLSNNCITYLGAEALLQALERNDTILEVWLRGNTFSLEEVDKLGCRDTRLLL

HEK293 [9] = experiment: inhibition of NOD1-driven NF-kB reporter – cell-based, luminescence, uHTS, primary screen (AID 1578); type: functional; conditions: Homo sapiens
HEK293 [10] = experiment: NOD2 signaling inhibitors in MDP-stimulated cells, cell-based, uHTS, luminescence (AID 2001); type: functional; conditions: Homo sapiens
[11] = HPDE-C7 pancreatic duct cell viability loss – fluorescence, HTS (AID 430); type: functional, cell-based; conditions: Homo sapiens
HEK293 [12] = experiment: cells; type: functional, cell-based; conditions: Homo sapiens; remark: listed apart in the source
HEK293 [13] = experiment: cells; type: functional, cell-based; conditions: Homo sapiens; remark: listed apart in the source
[14] = molecular target: T3, Replicative DNA helicase DnaB (Mycobacterium tuberculosis, UniProt P9WMR3); experiment: DnaB intein splicing inhibitors, dose response, biochemical, cell-free fluorescence (AID 449749); type: functional
T3 sequence (P9WMR3 whole entry): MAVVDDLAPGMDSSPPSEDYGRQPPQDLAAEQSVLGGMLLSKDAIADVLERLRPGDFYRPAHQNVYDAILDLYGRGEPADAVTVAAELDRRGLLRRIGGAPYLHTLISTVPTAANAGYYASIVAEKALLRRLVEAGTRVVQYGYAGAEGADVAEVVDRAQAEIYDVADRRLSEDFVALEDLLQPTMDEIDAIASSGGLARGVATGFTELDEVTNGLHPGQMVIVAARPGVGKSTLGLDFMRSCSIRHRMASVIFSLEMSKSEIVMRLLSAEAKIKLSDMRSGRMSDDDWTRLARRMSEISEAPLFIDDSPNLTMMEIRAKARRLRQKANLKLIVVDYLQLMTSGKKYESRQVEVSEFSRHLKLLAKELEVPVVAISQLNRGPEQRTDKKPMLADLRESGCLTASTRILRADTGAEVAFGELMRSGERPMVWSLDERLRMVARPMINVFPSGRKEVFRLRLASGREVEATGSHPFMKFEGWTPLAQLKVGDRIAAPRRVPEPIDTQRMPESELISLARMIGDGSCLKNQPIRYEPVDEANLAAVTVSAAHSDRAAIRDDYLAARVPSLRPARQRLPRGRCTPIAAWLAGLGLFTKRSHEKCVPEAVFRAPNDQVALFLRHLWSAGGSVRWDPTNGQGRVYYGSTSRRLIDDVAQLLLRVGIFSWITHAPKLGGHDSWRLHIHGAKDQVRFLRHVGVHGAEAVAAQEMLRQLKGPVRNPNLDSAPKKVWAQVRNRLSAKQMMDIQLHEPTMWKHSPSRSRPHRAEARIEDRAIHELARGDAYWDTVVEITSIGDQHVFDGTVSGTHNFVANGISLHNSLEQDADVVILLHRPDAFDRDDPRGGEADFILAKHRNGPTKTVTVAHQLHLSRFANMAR

[15] = molecular target: T4, Microphthalmia-associated transcription factor (Homo sapiens, UniProt O75030); experiment: reducers of TRPM1 reporter luminescence, concentration series – cell-based, SK-MEL-5, cherry-picked, set 3, MITF inhibitor project, dose response (AID 493073); type: functional;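 note: SK-MEL-5 melanoma cells with luciferase driven by the MITF target TRPM1 promoter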
T4 sequence (O75030 whole entry): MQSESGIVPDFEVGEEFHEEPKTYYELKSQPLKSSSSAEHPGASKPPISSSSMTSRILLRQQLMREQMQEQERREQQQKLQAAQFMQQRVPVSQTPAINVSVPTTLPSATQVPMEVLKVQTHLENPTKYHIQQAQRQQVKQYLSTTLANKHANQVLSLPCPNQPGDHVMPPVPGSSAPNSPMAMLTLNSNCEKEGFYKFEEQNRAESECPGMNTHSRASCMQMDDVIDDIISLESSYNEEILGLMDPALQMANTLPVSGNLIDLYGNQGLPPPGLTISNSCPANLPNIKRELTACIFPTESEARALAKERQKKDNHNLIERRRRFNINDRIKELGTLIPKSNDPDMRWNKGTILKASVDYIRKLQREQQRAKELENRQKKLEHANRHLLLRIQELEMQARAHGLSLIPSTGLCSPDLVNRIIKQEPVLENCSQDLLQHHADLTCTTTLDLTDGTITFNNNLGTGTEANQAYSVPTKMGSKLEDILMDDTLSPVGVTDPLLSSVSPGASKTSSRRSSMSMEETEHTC

[16] = molecular target: T5, Heat shock factor protein 1 (Mus musculus, UniProt P38532); experiment: enhancement of HSF1-driven luciferase signal – cell-based, NIH3T3, luminescence, dose retest, confirmation (AID 435004); type: functional;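 note: stress induced by proteasome inhibitor MG132 added 30 min after compound; luciferase reporter driven by HSF1 response element in NIH3T3 cells; actives raise luminescence as potentiators of the MG132 stress response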
T5 sequence (P38532 whole entry): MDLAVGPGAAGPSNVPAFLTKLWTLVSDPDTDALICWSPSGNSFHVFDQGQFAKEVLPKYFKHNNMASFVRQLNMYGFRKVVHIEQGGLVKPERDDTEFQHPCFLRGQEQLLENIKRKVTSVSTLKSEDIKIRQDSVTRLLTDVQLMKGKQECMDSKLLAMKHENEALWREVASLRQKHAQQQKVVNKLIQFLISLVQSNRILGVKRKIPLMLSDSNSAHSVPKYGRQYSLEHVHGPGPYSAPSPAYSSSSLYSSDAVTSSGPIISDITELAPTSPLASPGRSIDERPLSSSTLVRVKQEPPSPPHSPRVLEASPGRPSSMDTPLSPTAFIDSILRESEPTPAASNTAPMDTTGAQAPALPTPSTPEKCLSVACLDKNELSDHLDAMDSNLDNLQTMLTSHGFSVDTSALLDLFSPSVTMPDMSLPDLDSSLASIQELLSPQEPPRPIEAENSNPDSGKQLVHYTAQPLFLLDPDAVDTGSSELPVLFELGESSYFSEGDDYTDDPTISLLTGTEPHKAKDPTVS

Protein RecA = molecular target: T6, Protein RecA (Mycobacterium tuberculosis, UniProt P9WHJ3); experiment: Fluorescence Cell-Free Homogeneous Dose Retest to Identify Inhibitors of RecA-Intein Splicing Activity. [Related pubchem assays (depositor defined):AID2097, AID2223, AID489010, AID492950]; type: functional
T6 sequence (P9WHJ3 whole entry): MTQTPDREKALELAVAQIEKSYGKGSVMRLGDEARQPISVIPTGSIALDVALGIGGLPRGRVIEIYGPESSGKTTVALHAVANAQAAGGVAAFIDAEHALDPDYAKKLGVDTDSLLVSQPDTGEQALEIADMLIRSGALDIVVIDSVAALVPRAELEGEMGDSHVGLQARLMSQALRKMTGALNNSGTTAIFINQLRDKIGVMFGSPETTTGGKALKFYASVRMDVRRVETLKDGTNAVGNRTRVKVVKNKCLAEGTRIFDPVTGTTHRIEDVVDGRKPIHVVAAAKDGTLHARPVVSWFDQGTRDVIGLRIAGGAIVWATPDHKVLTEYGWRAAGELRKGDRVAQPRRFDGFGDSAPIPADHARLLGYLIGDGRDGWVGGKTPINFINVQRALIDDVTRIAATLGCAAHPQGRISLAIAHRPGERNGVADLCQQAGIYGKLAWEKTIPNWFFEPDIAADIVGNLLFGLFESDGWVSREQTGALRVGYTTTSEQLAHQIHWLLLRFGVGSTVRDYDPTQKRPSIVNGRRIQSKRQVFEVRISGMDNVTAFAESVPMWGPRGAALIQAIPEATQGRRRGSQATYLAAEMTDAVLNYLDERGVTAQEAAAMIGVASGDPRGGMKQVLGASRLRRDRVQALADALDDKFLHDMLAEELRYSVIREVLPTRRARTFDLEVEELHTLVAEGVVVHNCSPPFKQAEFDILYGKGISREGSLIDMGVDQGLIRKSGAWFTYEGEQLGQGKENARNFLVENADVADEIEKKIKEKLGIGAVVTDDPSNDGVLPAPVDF

[17] = molecular target: T7, Alkaline phosphatase, tissue-nonspecific isozyme (Homo sapiens, UniProt P05186); experiment: potency against alkaline phosphatase TNAP – biochemical, luminescent, dose response, SAR follow-up (AID 1056)
T7 sequence (P05186 whole entry): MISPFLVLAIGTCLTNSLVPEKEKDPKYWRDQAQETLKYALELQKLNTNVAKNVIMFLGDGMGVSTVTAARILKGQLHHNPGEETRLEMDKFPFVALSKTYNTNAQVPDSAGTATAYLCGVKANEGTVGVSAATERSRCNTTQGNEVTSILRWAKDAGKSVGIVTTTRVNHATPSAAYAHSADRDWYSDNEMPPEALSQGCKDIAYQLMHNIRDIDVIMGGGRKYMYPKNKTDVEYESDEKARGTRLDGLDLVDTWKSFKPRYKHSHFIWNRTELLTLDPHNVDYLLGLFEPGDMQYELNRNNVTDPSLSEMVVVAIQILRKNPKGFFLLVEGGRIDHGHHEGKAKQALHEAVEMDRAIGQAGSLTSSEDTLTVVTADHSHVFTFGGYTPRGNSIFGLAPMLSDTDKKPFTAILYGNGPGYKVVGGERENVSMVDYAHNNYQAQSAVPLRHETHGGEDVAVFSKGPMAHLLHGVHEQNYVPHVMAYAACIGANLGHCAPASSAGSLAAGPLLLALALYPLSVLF

[18] = molecular target: Glyceraldehyde-3-phosphate dehydrogenase (Homo sapiens, UniProt P04406)
Sequence of Glyceraldehyde-3-phosphate dehydrogenase (P04406 whole entry): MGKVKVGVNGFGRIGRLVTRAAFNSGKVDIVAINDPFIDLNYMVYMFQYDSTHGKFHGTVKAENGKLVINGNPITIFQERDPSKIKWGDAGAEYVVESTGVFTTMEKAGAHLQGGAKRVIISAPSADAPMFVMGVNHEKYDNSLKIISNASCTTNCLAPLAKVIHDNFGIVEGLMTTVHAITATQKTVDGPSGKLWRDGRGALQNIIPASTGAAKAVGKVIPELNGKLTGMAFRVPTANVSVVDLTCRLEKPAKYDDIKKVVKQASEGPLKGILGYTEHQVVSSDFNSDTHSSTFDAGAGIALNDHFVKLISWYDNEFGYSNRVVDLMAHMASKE

[19] = molecular target: Alkaline phosphatase, placental type (Homo sapiens, UniProt P05187); experiment: human placental alkaline phosphatase inhibition – biochemical, luminescence, confirmation (AID 1512); type: functional
Sequence of Alkaline phosphatase, placental type (P05187 whole entry): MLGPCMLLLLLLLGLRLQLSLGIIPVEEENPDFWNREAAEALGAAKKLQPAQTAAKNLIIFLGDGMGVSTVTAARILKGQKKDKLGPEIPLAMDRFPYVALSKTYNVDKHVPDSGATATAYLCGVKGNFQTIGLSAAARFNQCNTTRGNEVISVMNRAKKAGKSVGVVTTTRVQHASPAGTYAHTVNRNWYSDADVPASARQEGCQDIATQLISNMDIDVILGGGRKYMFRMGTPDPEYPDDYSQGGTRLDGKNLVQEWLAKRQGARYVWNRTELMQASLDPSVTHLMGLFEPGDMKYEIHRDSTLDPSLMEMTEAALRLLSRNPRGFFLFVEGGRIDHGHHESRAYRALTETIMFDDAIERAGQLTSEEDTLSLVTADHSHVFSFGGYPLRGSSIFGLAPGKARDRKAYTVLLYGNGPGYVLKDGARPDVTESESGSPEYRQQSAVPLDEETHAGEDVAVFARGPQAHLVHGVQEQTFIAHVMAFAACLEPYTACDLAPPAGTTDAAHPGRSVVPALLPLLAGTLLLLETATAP

For `Cc1cc(C)c2c(=O)n(CC(=O)NCCCN3CCN(c4ccccc4F)CC3)sc2n1`, the IC50 (Large T antigen) was 14.3 µM (active), the EC50 [1] was 18 µM (active) and the IC50 [2] was 12.4 µM (active). For the same molecule, the IC50 [3] was 48.8 µM (active), the EC50 [4] was 17 µM (active) and the EC50 [5] was 0.0013 µM (active).
For `Cc1cc(NC(=O)CCS(=O)(=O)c2nc(-c3ccccc3)cc(C(F)(F)F)n2)no1`, the EC50 [6] was > 20 µM (not active), the IC50 (HEK293 [7]) was 6.11 µM (active) and the EC50 [8] was > 20 µM (inactive). The EC50 (HEK293 [9]) was > 20 µM (inactive), the IC50 (HEK293 [10]) was 8.24 µM (inactive) and the EC50 [11] was 9.01 µM (active). The IC50 (HEK293 [12]) was > 20 µM (inactive) and the IC50 (HEK293 [13]) was > 20 µM (inactive).
With `Cc1ccc(C2=NN(C(=O)CCl)C(c3cccs3)C2)o1` (centres undefined) the AC50 [14] was 1.52 µM (active), the IC50 (HEK293 [7]) was 2.11 µM (active) and the AC50 [15] was 6.1 µM (active). For the same molecule, the EC50 [8] was 8.81 µM (active), the EC50 (HEK293 [9]) was 8.03 µM (active) and the IC50 (HEK293 [10]) was 4.05 µM (active). For the same molecule, the EC50 [16] was 35.7 µM (inconclusive), the IC50 (HEK293 [12]) was > 20 µM (inactive) and the EC50 (Protein RecA) was 1.51 µM (active). For the same molecule, the IC50 (HEK293 [13]) was > 20 µM (inactive).
With `CCS(=O)(=O)c1nc(NC(C)=O)n[nH]1` the IC50 [17] was 94.8 µM (active) and > 100 µM (inactive), the IC50 [18] was > 100 µM (not active) and the IC50 [19] was > 100 µM (inactive).
With `O=C(CSc1nnc(-c2ccncc2)n1-c1ccc(Cl)cc1)c1ccc(O)c(O)c1` the IC50 [17] was 38.7 µM (active) and the IC50 [19] was 6.63 µM (active).
